Numbers after ± are expanded uncertainties.
Assay: xn = mol fraction of the nth substance listed
Conditions: 101 kPa, Liquid; for viscosity: Capillary tube (Ostwald / Ubbelohde) method; for speed of sound: Sing-around technique in a fixed-path interferometer; for mass density: Vibrating tube method

SMILES: CC(C)CCCC(C)CCCC(C)CCCCC(C)CCCC(C)CCCC(C)C (stereo not given) [2,6,10,15,19,23-hexamethyltetracosane] + CCCCO
- viscosity (298.15 K, x2 = 0): 28.26 ± 0.18 mPa·s
- viscosity (298.15 K, x2 = 0.0451): 26.66 ± 0.17 mPa·s
- viscosity (298.15 K, x2 = 0.1077): 24.69 ± 0.16 mPa·s
- viscosity (298.15 K, x2 = 0.1346): 23.92 ± 0.15 mPa·s
- viscosity (298.15 K, x2 = 0.1888): 22.48 ± 0.14 mPa·s
- viscosity (298.15 K, x2 = 0.2231): 21.62 ± 0.13 mPa·s
- viscosity (298.15 K, x2 = 0.3059): 19.67 ± 0.12 mPa·s
- viscosity (298.15 K, x2 = 0.4052): 17.39 ± 0.1 mPa·s
- viscosity (298.15 K, x2 = 0.5039): 15.11 ± 0.087 mPa·s
- viscosity (298.15 K, x2 = 0.6118): 12.47 ± 0.071 mPa·s
- viscosity (298.15 K, x2 = 0.7056): 10.06 ± 0.057 mPa·s
- viscosity (298.15 K, x2 = 0.7998): 7.573 ± 0.044 mPa·s
- viscosity (298.15 K, x2 = 0.8546): 6.128 ± 0.036 mPa·s
- viscosity (298.15 K, x2 = 0.9035): 4.873 ± 0.03 mPa·s
- viscosity (298.15 K, x2 = 0.9669): 3.325 ± 0.021 mPa·s
- speed of sound (298.15 K, x2 = 0): 1381.9 ± 1.2 m/s
- speed of sound (298.15 K, x2 = 0.0451): 1379.5 ± 1.2 m/s
- speed of sound (298.15 K, x2 = 0.1077): 1376.1 ± 1.2 m/s
- speed of sound (298.15 K, x2 = 0.1346): 1374.8 ± 1.2 m/s
- speed of sound (298.15 K, x2 = 0.1888): 1371.7 ± 1.1 m/s
- speed of sound (298.15 K, x2 = 0.2231): 1369.7 ± 1.1 m/s
- speed of sound (298.15 K, x2 = 0.3059): 1365.1 ± 1.1 m/s
- speed of sound (298.15 K, x2 = 0.4052): 1358.8 ± 1.1 m/s
- speed of sound (298.15 K, x2 = 0.5039): 1350.9 ± 1 m/s
- speed of sound (298.15 K, x2 = 0.6118): 1340.5 ± 1 m/s
- speed of sound (298.15 K, x2 = 0.7056): 1328.8 ± 0.9 m/s
- speed of sound (298.15 K, x2 = 0.7998): 1312.5 ± 0.9 m/s
- speed of sound (298.15 K, x2 = 0.8546): 1299.5 ± 0.9 m/s
- speed of sound (298.15 K, x2 = 0.9035): 1284.3 ± 0.9 m/s
- speed of sound (298.15 K, x2 = 0.9669): 1258.5 ± 0.8 m/s
- mass density (298.15 K, x2 = 0): 805.122 ± 0.23 kg/m3
- mass density (298.15 K, x2 = 0.0451): 804.881 ± 0.23 kg/m3
- mass density (298.15 K, x2 = 0.1077): 804.649 ± 0.22 kg/m3
- mass density (298.15 K, x2 = 0.1346): 804.573 ± 0.22 kg/m3
- mass density (298.15 K, x2 = 0.1888): 804.447 ± 0.21 kg/m3
- mass density (298.15 K, x2 = 0.2231): 804.377 ± 0.21 kg/m3
- mass density (298.15 K, x2 = 0.3059): 804.273 ± 0.2 kg/m3
- mass density (298.15 K, x2 = 0.4052): 804.097 ± 0.19 kg/m3
- mass density (298.15 K, x2 = 0.5039): 803.949 ± 0.18 kg/m3
- mass density (298.15 K, x2 = 0.6118): 803.817 ± 0.17 kg/m3
- mass density (298.15 K, x2 = 0.7056): 803.732 ± 0.16 kg/m3
- mass density (298.15 K, x2 = 0.7998): 803.836 ± 0.15 kg/m3
- mass density (298.15 K, x2 = 0.8546): 803.989 ± 0.15 kg/m3
- mass density (298.15 K, x2 = 0.9035): 804.336 ± 0.15 kg/m3
- mass density (298.15 K, x2 = 0.9669): 805.126 ± 0.14 kg/m3
- viscosity (303.15 K, x2 = 0): 22.09 ± 0.14 mPa·s
- viscosity (303.15 K, x2 = 0.0451): 20.88 ± 0.14 mPa·s
- viscosity (303.15 K, x2 = 0.1077): 19.42 ± 0.12 mPa·s
- viscosity (303.15 K, x2 = 0.1346): 18.86 ± 0.12 mPa·s
- viscosity (303.15 K, x2 = 0.1888): 17.78 ± 0.11 mPa·s
- viscosity (303.15 K, x2 = 0.2231): 17.14 ± 0.11 mPa·s
- viscosity (303.15 K, x2 = 0.3059): 15.64 ± 0.095 mPa·s
- viscosity (303.15 K, x2 = 0.4052): 13.9 ± 0.083 mPa·s
- viscosity (303.15 K, x2 = 0.5039): 12.14 ± 0.071 mPa·s
- viscosity (303.15 K, x2 = 0.6118): 10.12 ± 0.059 mPa·s
- viscosity (303.15 K, x2 = 0.7056): 8.276 ± 0.048 mPa·s
- viscosity (303.15 K, x2 = 0.7998): 6.348 ± 0.038 mPa·s
- viscosity (303.15 K, x2 = 0.8546): 5.2 ± 0.032 mPa·s
- viscosity (303.15 K, x2 = 0.9035): 4.186 ± 0.026 mPa·s
- viscosity (303.15 K, x2 = 0.9669): 2.912 ± 0.018 mPa·s
- speed of sound (303.15 K, x2 = 0): 1364.1 ± 1.2 m/s
- speed of sound (303.15 K, x2 = 0.0451): 1361.7 ± 1.2 m/s
- speed of sound (303.15 K, x2 = 0.1077): 1358.3 ± 1.2 m/s
- speed of sound (303.15 K, x2 = 0.1346): 1356.5 ± 1.2 m/s
- speed of sound (303.15 K, x2 = 0.1888): 1353.8 ± 1.1 m/s
- speed of sound (303.15 K, x2 = 0.2231): 1351.8 ± 1.1 m/s
- speed of sound (303.15 K, x2 = 0.3059): 1347.1 ± 1.1 m/s
- speed of sound (303.15 K, x2 = 0.4052): 1340.8 ± 1 m/s
- speed of sound (303.15 K, x2 = 0.5039): 1332.6 ± 1 m/s
- speed of sound (303.15 K, x2 = 0.6118): 1322.5 ± 1 m/s
- speed of sound (303.15 K, x2 = 0.7056): 1310.9 ± 0.9 m/s
- speed of sound (303.15 K, x2 = 0.7998): 1294.8 ± 0.9 m/s
- speed of sound (303.15 K, x2 = 0.8546): 1281.8 ± 0.9 m/s
- speed of sound (303.15 K, x2 = 0.9035): 1266.8 ± 0.9 m/s
- speed of sound (303.15 K, x2 = 0.9669): 1241.4 ± 0.8 m/s
- mass density (303.15 K, x2 = 0): 801.912 ± 0.24 kg/m3
- mass density (303.15 K, x2 = 0.0451): 801.658 ± 0.23 kg/m3
- mass density (303.15 K, x2 = 0.1077): 801.402 ± 0.22 kg/m3
- mass density (303.15 K, x2 = 0.1346): 801.318 ± 0.22 kg/m3
- mass density (303.15 K, x2 = 0.1888): 801.16 ± 0.21 kg/m3
- mass density (303.15 K, x2 = 0.2231): 801.07 ± 0.21 kg/m3
- mass density (303.15 K, x2 = 0.3059): 800.898 ± 0.2 kg/m3
- mass density (303.15 K, x2 = 0.4052): 800.714 ± 0.19 kg/m3
- mass density (303.15 K, x2 = 0.5039): 800.528 ± 0.18 kg/m3
- mass density (303.15 K, x2 = 0.6118): 800.347 ± 0.17 kg/m3
- mass density (303.15 K, x2 = 0.7056): 800.179 ± 0.16 kg/m3
- mass density (303.15 K, x2 = 0.7998): 800.194 ± 0.15 kg/m3
- mass density (303.15 K, x2 = 0.8546): 800.335 ± 0.15 kg/m3
- mass density (303.15 K, x2 = 0.9035): 800.708 ± 0.15 kg/m3
- mass density (303.15 K, x2 = 0.9669): 801.896 ± 0.14 kg/m3
- viscosity (308.15 K, x2 = 0): 17.77 ± 0.12 mPa·s
- viscosity (308.15 K, x2 = 0.0451): 16.81 ± 0.11 mPa·s
- viscosity (308.15 K, x2 = 0.1077): 15.62 ± 0.1 mPa·s
- viscosity (308.15 K, x2 = 0.1346): 15.16 ± 0.097 mPa·s
- viscosity (308.15 K, x2 = 0.1888): 14.29 ± 0.09 mPa·s
- viscosity (308.15 K, x2 = 0.2231): 13.79 ± 0.087 mPa·s
- viscosity (308.15 K, x2 = 0.3059): 12.62 ± 0.078 mPa·s
- viscosity (308.15 K, x2 = 0.4052): 11.38 ± 0.069 mPa·s
- viscosity (308.15 K, x2 = 0.5039): 9.903 ± 0.059 mPa·s
- viscosity (308.15 K, x2 = 0.6118): 8.307 ± 0.049 mPa·s
- viscosity (308.15 K, x2 = 0.7056): 6.824 ± 0.041 mPa·s
- viscosity (308.15 K, x2 = 0.7998): 5.267 ± 0.032 mPa·s
- viscosity (308.15 K, x2 = 0.8546): 4.344 ± 0.027 mPa·s
- viscosity (308.15 K, x2 = 0.9035): 3.527 ± 0.022 mPa·s
- viscosity (308.15 K, x2 = 0.9669): 2.497 ± 0.016 mPa·s
- speed of sound (308.15 K, x2 = 0): 1346.5 ± 1.2 m/s
- speed of sound (308.15 K, x2 = 0.0451): 1343 ± 1.2 m/s
- speed of sound (308.15 K, x2 = 0.1077): 1340.2 ± 1.2 m/s
- speed of sound (308.15 K, x2 = 0.1346): 1338.9 ± 1.2 m/s
- speed of sound (308.15 K, x2 = 0.1888): 1335.9 ± 1.1 m/s
- speed of sound (308.15 K, x2 = 0.2231): 1333.9 ± 1.1 m/s
- speed of sound (308.15 K, x2 = 0.3059): 1329.3 ± 1.1 m/s
- speed of sound (308.15 K, x2 = 0.4052): 1322.8 ± 1 m/s
- speed of sound (308.15 K, x2 = 0.5039): 1314.8 ± 1 m/s
- speed of sound (308.15 K, x2 = 0.6118): 1304.6 ± 1 m/s
- speed of sound (308.15 K, x2 = 0.7056): 1293.1 ± 0.9 m/s
- speed of sound (308.15 K, x2 = 0.7998): 1277.1 ± 0.9 m/s
- speed of sound (308.15 K, x2 = 0.8546): 1264.2 ± 0.9 m/s
- speed of sound (308.15 K, x2 = 0.9035): 1249.1 ± 0.8 m/s
- speed of sound (308.15 K, x2 = 0.9669): 1224.4 ± 0.8 m/s
- mass density (308.15 K, x2 = 0): 798.709 ± 0.24 kg/m3
- mass density (308.15 K, x2 = 0.0451): 798.397 ± 0.23 kg/m3
- mass density (308.15 K, x2 = 0.1077): 798.084 ± 0.22 kg/m3
- mass density (308.15 K, x2 = 0.1346): 797.991 ± 0.22 kg/m3
- mass density (308.15 K, x2 = 0.1888): 797.826 ± 0.21 kg/m3
- mass density (308.15 K, x2 = 0.2231): 797.731 ± 0.21 kg/m3
- mass density (308.15 K, x2 = 0.3059): 797.543 ± 0.2 kg/m3
- mass density (308.15 K, x2 = 0.4052): 797.32 ± 0.19 kg/m3
- mass density (308.15 K, x2 = 0.5039): 797.098 ± 0.18 kg/m3
- mass density (308.15 K, x2 = 0.6118): 796.857 ± 0.17 kg/m3
- mass density (308.15 K, x2 = 0.7056): 796.621 ± 0.16 kg/m3
- mass density (308.15 K, x2 = 0.7998): 796.558 ± 0.15 kg/m3
- mass density (308.15 K, x2 = 0.8546): 796.66 ± 0.15 kg/m3
- mass density (308.15 K, x2 = 0.9035): 796.979 ± 0.15 kg/m3
- mass density (308.15 K, x2 = 0.9669): 798.06 ± 0.14 kg/m3
